From article PMC12144893, “Synthesis and Characterization of Photoswitchable Covalent Ligands for the β2‐Adrenoceptor” (Angewandte Chemie (International Ed. in English), 2025)
Read-outs that look alike come from different tables or passages of the source.

How the values were obtained:
human β2AR = molecular target: T1, human β2AR (Homo sapiens, UniProt P07550); type: cell-based
T1 construct: host or cells: HEK-293T

[1] = UV/Vis spectra of E- and Z-isomers in Tris buffer; type: physicochemical; conditions: for λmax (E): E-isomer, Tris buffer 50 mM Tris, 1 mM EDTA, 1 mM MgCl2; for λmax (Z): Z-isomer, Tris buffer
Procedure: 1.4. Photophysical Characterization
1.4.1. UV/Vis Spectra and Cycle Performance
UV/Vis absorption spectra were measured to characterize the photophysical properties of the synthesized pho to switches. The pho to switches were diluted with TRIS buffer (50 m M Tris, 1 m M EDTA, 1 mM MgCl2, pH 7.4) to end up with a concentration of 10 µM + 0.5% DMSO. The spectra were measured in a quartz glass cuvette after different illuminations with LED modules. First, the solution was illuminated with 365 nm light for 10 s to switch to the Z -isomer. After measuring the UV/Vis spectrum of the Z-isomer (purple curve), the solution was illuminated with 528 nm light for 120 s and the spectrum for the E -isomer (black curve) was measured. This cycle was repeated ten times to show the stability and repeatability of switching the compound. The isosbestic points could be determined from an overlay of the UV/Vis spectra of both isomers.
(§1) Wavelength λ [nm] Cycle Number
Figure S10. UV/Vis spectr um and cycle performance of 1.
Figure S11. UV/Vis spectr um and cycle performance of 2.
(also on this page, place not known: photoswitches. photoswitches mM mM MgCl 2, 0.5 % E-isomer coul d spectrum spectrum 600 0,15Absorbance 0 Absorbance 340 nm 600 0,18Absorbance 0 Absorbance 335 nm)

[2] = Photostationary states by analytical HPLC at isosbestic points; type: physicochemical; conditions: single experiment; for PSS (E → Z): irradiation with 365 nm; for PSS (Z → E): irradiation with 528 nm
Procedure: as §1
Figure S18. UV/Vis spectr um and cycle performance of 7.
1.4.2. Photostationary States
Photostationary states (PSS) were measured on analytical HPLC. To determine the photostationary state of the photoswitches the samples (0.2 mM in Tris buffer + 2% DMSO) were irradiated first with 3 65 nm to get the Z -isomer (Peak 1). Afterwards, the sample was irradiated with 528 nm to get back to the E-isomer (Peak 2). The samples were measured at the isosbestic points.
Figure S19. Photostationary state of 1 after irradiation with 365 nm (switching to the Z - isomer).
Figure S20. Photostationary state of 1 after irradiation with 528 nm (switching to the E -isomer). […]

[3] = Thermal half-life of the metastable Z isomer; type: physicochemical; conditions: Tris buffer + 0.5% DMSO
Procedure: Figure S36. Photostationary state of 9 after irradiation with 528 nm (switching to the E -isomer).
1.4.3. Thermal Half-lives
For the determination of the thermal stability of the metastable Z isomer a 50 µM solution in Tris buffer
+ 0.5% DMSO was irradiated with 365 nm. For 4 weeks the absorption at 335 nm was measured every
ExpDec1 Fit of Sheet1 B 0,35 ExpDec1 Fit of Sheet1 B
Modell ExpDec1 Modell ExpDec1
Gle i c hung y = A 1 *e xp (-x/t1 ) + y0 Gle i c hung y = A 1 *e xp (-x/t1 ) + y0
Ze i c hne n B Ze i c hne n B
(also on this page, place not known: E-isomer). 0,45absorption 335 nm Gleichung A1*exp(-x/t1) Zeichnen (COD) 0,50absorption 335 nm Gleichung A1*exp(-x/t1) Zeichnen (COD)) […]

[4] = HEK-293T, reference agonists, β2AR wild-type, relative to norepinephrine, read-out: Emax
[5] = E-isomer, β2AR wild type, mean ± S.E.M.
[6] = HEK-293T, E-isomer, β2AR wild type, relative to maximum effect of norepinephrine, read-out: Emax
[7] = HEK-293T, Z-isomer, β2AR wild type, relative to maximum effect of norepinephrine, read-out: Emax
[8] = Z-isomer, β2AR wild type, mean ± S.E.M.

T1 sequence (P07550 whole entry): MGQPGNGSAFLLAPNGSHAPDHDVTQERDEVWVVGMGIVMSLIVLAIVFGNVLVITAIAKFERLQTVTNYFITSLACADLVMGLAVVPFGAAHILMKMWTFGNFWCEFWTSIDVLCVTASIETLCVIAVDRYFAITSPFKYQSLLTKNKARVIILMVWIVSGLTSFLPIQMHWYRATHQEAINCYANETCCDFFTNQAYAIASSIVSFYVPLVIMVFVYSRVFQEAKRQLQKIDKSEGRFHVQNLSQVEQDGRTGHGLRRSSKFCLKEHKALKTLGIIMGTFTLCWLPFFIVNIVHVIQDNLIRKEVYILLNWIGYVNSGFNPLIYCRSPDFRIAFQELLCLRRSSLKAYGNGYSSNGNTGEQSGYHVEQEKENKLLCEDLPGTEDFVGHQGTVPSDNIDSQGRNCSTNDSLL

Emax (human β2AR; [4]) [%] | EC50 (human β2AR; Z-isomer, β2AR wild type) [nM] | EC50 (human β2AR; [5]) [nM] | Emax (human β2AR; [6]) [%] | Emax (human β2AR; [7]) [%] | EC50 (human β2AR; [8]) [nM] | λmax (E) [1] [nm] | λmax (Z) [1] [nm] | PSS (E → Z) [2] [%] | PSS (Z → E) [2] [%] | t1/2 [3] [days] | Emax (human β2AR; E-isomer, β2AR wild type, relative to maximum effect of norepinephrine) [%] | Emax (human β2AR; Z-isomer, β2AR wild type, relative to maximum effect of norepinephrine) [%] | SMILES
103 | – | – | – | – | – | – | – | – | – | – | – | – | CNC[C@H](O)c1ccc(O)c(O)c1 [epinephrine, reference compound]
100 | – | – | – | – | – | – | – | – | – | – | – | – | NC[C@H](O)c1ccc(O)c(O)c1 [norepinephrine, reference compound]
– | 4300 | – | – | – | – | – | – | – | – | – | – | – | Cc1nn(CCN2C(=O)C=CC2=O)c(C)c1/N=N\c1ccc(CCNC[C@H](O)c2ccc(O)c(O)c2)cc1 [Compound Z-7]
– | – | 72 ± 12 | 88 ± 5 | 85 ± 5 | 57 ± 8.5 | 339 | 435 | 95 | 93 | 20.4 | – | – | Cc1nn(CCCN2C(=O)C=CC2=O)c(C)c1/N=N/c1ccc(CCNCC(O)c2ccc(O)c3c2OCC(=O)N3)cc1 (centres unmarked) [Compound 9]
– | – | 1500 | 103 ± 4 | 101 ± 10 | 4300 | 335 | 433 | 92 | 85 | 4.5 | – | – | Cc1nn(CCN2C(=O)C=CC2=O)c(C)c1/N=N/c1ccc(CCNC[C@H](O)c2ccc(O)c(O)c2)cc1 [Compound 7]
– | – | 7.2 ± 3 | 85 ± 2 | 78 ± 4 | 17 ± 6.3 | 337 | 434 | 95 | 89 | 15.2 | – | – | Cc1nn(CCSSCCN)c(C)c1N=Nc1ccc(CCNCC(O)c2ccc(O)c3c2OCC(=O)N3)cc1 (mixture of isomers) [Compound 3]
– | – | 38 ± 5.8 | 70 ± 2 | 89 ± 1 | 21 ± 1.3 | 340 | 435 | 95 | 93 | 13.3 | – | – | Cc1nn(CCCCCSSCCN)c(C)c1/N=N/c1ccc(CCNCC(O)c2ccc(O)c3c2OCC(=O)N3)cc1 (centres unmarked) [Compound 6]
– | – | 7.2 | – | – | – | – | – | – | – | – | – | – | Cc1nn(CCSSCCN)c(C)c1/N=N/c1ccc(CCNCC(O)c2ccc(O)c3c2OCC(=O)N3)cc1 (centres unmarked) [Compound E-3]
– | – | 79 | – | – | – | – | – | – | – | – | – | – | Cc1nn(CCCCSSCCN)c(C)c1/N=N/c1ccc(CCNCC(O)c2ccc(O)c3c2OCC(=O)N3)cc1 (racemic) [Compound E-5]
– | – | 940 ± 34 | 96 ± 2 | 97 ± 1 | 700 ± 35 | 335 | 433 | 89 | 87 | 4.9 | – | – | Cc1nn(CCCSSCCN(C)C)c(C)c1/N=N/c1ccc(CCNC[C@H](O)c2ccc(O)c(O)c2)cc1 [Compound 2]
– | – | – | – | – | – | – | – | – | – | – | 70 | – | Cc1nn(CCCCCSSCCN)c(C)c1/N=N/c1ccc(CCNCC(O)c2ccc(O)c3c2OCC(=O)N3)cc1 (racemic) [Compound E-6]
– | 480 | – | – | – | – | – | – | – | – | – | – | – | Cc1nn(CCSSCCN(C)C)c(C)c1/N=N\c1ccc(CCNC[C@H](O)c2ccc(O)c(O)c2)cc1 [Compound Z-1]
– | – | 53 ± 2.6 | 84 ± 5 | 90 ± 2 | 75 ± 2.3 | 337 | 435 | 95 | 94 | 18.6 | – | – | Cc1nn(CCN2C(=O)C=CC2=O)c(C)c1/N=N/c1ccc(CCNCC(O)c2ccc(O)c3c2OCC(=O)N3)cc1 (centres unmarked) [Compound 8]
– | – | 79 ± 25 | 98 ± 1 | 93 ± 4 | 9.9 ± 1.7 | 338 | 436 | 94 | 92 | 16.7 | – | – | Cc1nn(CCCCSSCCN)c(C)c1/N=N/c1ccc(CCNCC(O)c2ccc(O)c3c2OCC(=O)N3)cc1 (centres unmarked) [Compound 5]
– | – | – | – | – | – | – | – | – | – | – | – | 85 | Cc1nn(CCCCCSSCCN)c(C)c1/N=N\c1ccc(CCNCC(O)c2ccc(O)c3c2OCC(=O)N3)cc1 (racemic) [Compound Z-6]
– | – | 39 ± 7 | 88 ± 3 | 87 ± 5 | 9.8 ± 0.9 | 339 | 436 | 96 | 92 | 15.7 | – | – | Cc1nn(CCCSSCCN)c(C)c1/N=N/c1ccc(CCNCC(O)c2ccc(O)c3c2OCC(=O)N3)cc1 (centres unmarked) [Compound 4]
– | – | 630 ± 72 | 108 ± 3 | 78 ± 1 | 480 ± 110 | 335 | 435 | 89 | 90 | 3.9 | – | – | Cc1nn(CCSSCCN(C)C)c(C)c1/N=N/c1ccc(CCNC[C@H](O)c2ccc(O)c(O)c2)cc1 [Compound 1, (R,E)-4-(2-((4-((1-(2-((2-(Dimethylamino)ethyl)disulfaneyl)ethyl)-3,5-dimethyl-1H-pyrazol-4-yl)diazenyl)phenethyl)amino)-1-hydroxyethyl)benzene-1,2-diol]
